Laboratory results published in patent US20060069132A1, “Azolecarboxamide herbicides” (priority 2004, published 2006).

Legend:
barnyardgrass [1] = assay: Test A pre-/postemergence herbicide test; assay type: in vivo, Echinochloa crus-galli
Procedure, shortened: (§1)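 Plants are held in greenhouse about ten days after treatment, then compared with untreated controls and scored 0 (no effect) to 100 (complete control). Preemergence dosing is a directed soil spray on sown sandy loam; postemergence dosing is spray to runoff at 2–10 cm height.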

large crabgrass [2] = assay: Test A pre-/postemergence herbicide test; assay type: in vivo, Digitaria sanguinalis
Procedure, shortened: as §1

giant foxtail [3] = assay: Test A pre-/postemergence herbicide test; assay type: in vivo, Setaria faberi
Procedure, shortened: as §1

morningglory [4] = assay: Test A pre-/postemergence herbicide test; assay type: in vivo, Ipomoea spp.
Procedure, shortened: as §1

redroot pigweed = assay: Test A pre-/postemergence herbicide test; assay type: in vivo, Amaranthus retroflexus
Procedure, shortened: as §1

velvetleaf [5] = assay: Test A pre-/postemergence herbicide test; assay type: in vivo, Abutilon theophrasti
Procedure, shortened: as §1

barnyardgrass [6] = assay: Test B pre-/postemergence herbicide test; assay type: in vivo, Echinochloa crus-galli; details: for Barnyardgrass plant response rating: postemergence, visual rating, scale 0 (no effect) to 100 (complete control)
Procedure, shortened: (§2)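 Response was scored visually 13 to 15 days after treatment against untreated greenhouse controls, 0 meaning no effect and 100 complete control. Formulations (solvent mixture plus surfactant) went onto soil after planting, onto foliage of 1- to 4-leaf plants, and onto 2-leaf plants in a flooded paddy set including rice and barnyardgrass.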

Surinam grass = assay: Test B pre-/postemergence herbicide test; assay type: in vivo, Urochloa decumbens; details: for Surinam Grass plant response rating: postemergence, visual rating, scale 0 (no effect) to 100 (complete control)
Procedure, shortened: (§3)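 Herbicidal effect was judged by eye on a 0–100 scale after plants stood 13 to 15 days in the greenhouse following pre- or postemergence treatment with surfactant-containing formulations.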

cocklebur = assay: Test B pre-/postemergence herbicide test; assay type: in vivo, Xanthium strumarium; details: for Cocklebur plant response rating: postemergence, visual rating, scale 0 (no effect) to 100 (complete control)
Procedure, shortened: as §2

corn = assay: Test B pre-/postemergence herbicide test; assay type: in vivo, Zea mays; details: for Corn plant response rating: postemergence, visual rating, scale 0 (no effect) to 100 (complete control)
Procedure, shortened: as §3

large crabgrass [7] = assay: Test B pre-/postemergence herbicide test; assay type: in vivo, Digitaria sanguinalis; details: for Crabgrass, Large plant response rating: postemergence, visual rating, scale 0 (no effect) to 100 (complete control)
Procedure, shortened: as §3

giant foxtail [8] = assay: Test B pre-/postemergence herbicide test; assay type: in vivo, Setaria faberi; details: for Foxtail, Giant plant response rating: postemergence, visual rating, scale 0 (no effect) to 100 (complete control)
Procedure, shortened: as §3

lambsquarters = assay: Test B pre-/postemergence herbicide test; assay type: in vivo, Chenopodium album; details: for Lambsquarters plant response rating: postemergence, visual rating, scale 0 (no effect) to 100 (complete control)
Procedure, shortened: as §3

morningglory [9] = assay: Test B pre-/postemergence herbicide test; assay type: in vivo, Ipomoea coccinea; details: for Morningglory plant response rating: postemergence, visual rating, scale 0 (no effect) to 100 (complete control)
Procedure, shortened: as §2

pigweed = assay: Test B pre-/postemergence herbicide test; assay type: in vivo, Amaranthus retroflexus; details: for Pigweed plant response rating: postemergence, visual rating, scale 0 (no effect) to 100 (complete control)
Procedure, shortened: as §3

rice [10] = assay: Test B pre-/postemergence herbicide test; assay type: in vivo, Oryza sativa; details: preemergence
Procedure, shortened: as §3

velvetleaf [11] = assay: Test B pre-/postemergence herbicide test; assay type: in vivo, Abutilon theophrasti; details: for Velvetleaf plant response rating: postemergence, visual rating, scale 0 (no effect) to 100 (complete control)
Procedure, shortened: as §3

blackgrass = assay: Test B postemergence herbicide test; assay type: in vivo, Alopecurus myosuroides; details: postemergence, visual rating, scale 0 (no effect) to 100 (complete control)
Procedure, shortened: (§4)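 Visual control ratings, 0–100 versus untreated controls, taken after 13 to 15 days in the greenhouse. Blackgrass received a postemergence spray at the 1- to 4-leaf stage (2–18 cm); ducksalad, umbrella sedge and barnyardgrass were flooded-paddy treated at 2 leaves.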

wheat = assay: Test B postemergence herbicide test; assay type: in vivo, Triticum aestivum; design: key to Wheat plant response rating: 0 = no effect, 100 = complete control; details: postemergence, visual rating, scale 0 (no effect) to 100 (complete control)
Procedure, shortened: (§5)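 Formulated test chemicals went onto postemergence plants measuring 2 to 18 cm, at one to four leaves. For the paddy assay, species had reached two leaves. Scoring took place 13–15 days later by eye, relative to untreated plants, using 0 for no effect up to 100 for full control.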

wild oat = assay: Test B postemergence herbicide test; assay type: in vivo, Avena fatua; details: postemergence, visual rating, scale 0 (no effect) to 100 (complete control)
Procedure, shortened: as §5

rice [12] = assay: Test B flooded paddy test; assay type: in vivo, Oryza sativa; details: 1000 g ai/ha, visual rating, scale 0 to 100 (0 no effect, 100 complete control), 13 to 15 days
Procedure, shortened: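 Treated at 2-leaf (paddy) or 1–4-leaf, 2–18 cm (postemergence); greenhouse 13–15 d; visual score vs control, 0 none to 100 complete control; dash = not tested.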

[13] = system: small flower umbrella sedge; assay: Test B flooded paddy test; assay type: in vivo, Cyperus difformis; details: 1000 g ai/ha, visual rating, scale 0 to 100 (0 no effect, 100 complete control), 13 to 15 days
Procedure, shortened: as §4

ducksalad = assay: Test B flooded paddy test; assay type: in vivo, Heteranthera limosa; details: 1000 g ai/ha, visual rating, scale 0 to 100 (0 no effect, 100 complete control), 13 to 15 days
Procedure, shortened: as §4

barnyardgrass [14] = assay: Test B flooded paddy test; assay type: in vivo, Echinochloa crus-galli; details: 1000 g ai/ha, visual rating, scale 0 to 100 (0 no effect, 100 complete control), 13 to 15 days
Procedure, shortened: as §4

[15] = Postemergence, 500 g ai/ha, 0 to 100 scale, 0 no effect, 100 complete control
[16] = Postemergence, 2000 g ai/ha, 0 to 100 scale, 0 no effect, 100 complete control
[17] = Preemergence, 2000 g ai/ha, visual rating, 0 to 100 scale (0 no effect, 100 complete control)
[18] = preemergence, 500 g ai/ha, visual injury, 0 to 100 scale (0 no effect, 100 complete control)
[19] = 125 g ai/ha, 0 = no effect, 100 = complete control, preemergence
[20] = 500 g ai/ha, visual rating 0-100, 0 no effect, 100 complete control, preemergence

Cc1nc(C(C)(C)C)sc1C(=O)Nc1cccc(C(=O)NCC(F)(F)F)c1 [Compound 201]
Barnyardgrass plant response rating (barnyardgrass [1]; [15]): 10
Plant response rating, Barnyardgrass (barnyardgrass [1]; [16]): 20
Barnyardgrass plant response rating (barnyardgrass [1]; [17]): 50
Barnyardgrass plant response rating (barnyardgrass [1]; [18]): 0
Crabgrass, Large plant response rating (large crabgrass [2]; [15]): 10
Plant response rating, Crabgrass, Large (large crabgrass [2]; [16]): 20
Crabgrass, Large plant response rating (large crabgrass [2]; [17]): 70
Crabgrass, Large plant response rating (large crabgrass [2]; [18]): 35
Foxtail, Giant plant response rating (giant foxtail [3]; [15]): 0
Plant response rating, Foxtail, Giant (giant foxtail [3]; [16]): 10
Foxtail, Giant plant response rating (giant foxtail [3]; [17]): 15
Foxtail, Giant plant response rating (giant foxtail [3]; [18]): 0
Morningglory plant response rating (morningglory [4]; [15]): 25
Plant response rating, Morningglory (morningglory [4]; [16]): 30
Morningglory plant response rating (morningglory [4]; [17]): 5
Morningglory plant response rating (morningglory [4]; [18]): 0
Pigweed plant response rating (redroot pigweed; [15]): 40
Plant response rating, Pigweed (redroot pigweed; [16]): 55
Pigweed plant response rating (redroot pigweed; [17]): 95
Pigweed plant response rating (redroot pigweed; [18]): 40
Velvetleaf plant response rating (velvetleaf [5]; [15]): 10
Plant response rating, Velvetleaf (velvetleaf [5]; [16]): 10
Velvetleaf plant response rating (velvetleaf [5]; [17]): 35
Velvetleaf plant response rating (velvetleaf [5]; [18]): 0
Barnyardgrass plant response rating (0 to 100 scale) (barnyardgrass [6]; [19]): 0
Plant response rating, Barnyardgrass (barnyardgrass [6]; [20]): 10
Barnyardgrass plant response rating (barnyardgrass [6]; 125 g ai/ha): 0
Barnyardgrass plant response rating (barnyardgrass [6]; 500 g ai/ha): 0
Surinam Grass plant response rating (0 to 100 scale) (Surinam grass; [19]): 0
Plant response rating, Surinam Grass (Surinam grass; [20]): 0
Surinam Grass plant response rating (Surinam grass; 125 g ai/ha): 0
Surinam Grass plant response rating (Surinam grass; 500 g ai/ha): 10
Cocklebur plant response rating (0 to 100 scale) (cocklebur; [19]): 0
Plant response rating, Cocklebur (cocklebur; [20]): 0
Cocklebur plant response rating (cocklebur; 125 g ai/ha): 10
Cocklebur plant response rating (cocklebur; 500 g ai/ha): 10
Corn plant response rating (0 to 100 scale) (corn; [19]): 0
Plant response rating, Corn (corn; [20]): 0
Corn plant response rating (corn; 125 g ai/ha): 10
Corn plant response rating (corn; 500 g ai/ha): 20
Crabgrass, Large plant response rating (0 to 100 scale) (large crabgrass [7]; [19]): 0
Plant response rating, Crabgrass, Large (large crabgrass [7]; [20]): 60
Crabgrass, Large plant response rating (large crabgrass [7]; 125 g ai/ha): 0
Crabgrass, Large plant response rating (large crabgrass [7]; 500 g ai/ha): 10
Foxtail, Giant plant response rating (0 to 100 scale) (giant foxtail [8]; [19]): 0
Plant response rating, Foxtail, Giant (giant foxtail [8]; [20]): 0
Foxtail, Giant plant response rating (giant foxtail [8]; 125 g ai/ha): 0
Foxtail, Giant plant response rating (giant foxtail [8]; 500 g ai/ha): 0
Lambsquarters plant response rating (0 to 100 scale) (lambsquarters; [19]): 0
Plant response rating, Lambsquarters (lambsquarters; [20]): 30
Lambsquarters plant response rating (lambsquarters; 125 g ai/ha): 40
Lambsquarters plant response rating (lambsquarters; 500 g ai/ha): 40
Morningglory plant response rating (0 to 100 scale) (morningglory [9]; [19]): 0
Plant response rating, Morningglory (morningglory [9]; [20]): 10
Morningglory plant response rating (morningglory [9]; 125 g ai/ha): 0
Morningglory plant response rating (morningglory [9]; 500 g ai/ha): 30
Pigweed plant response rating (0 to 100 scale) (pigweed; [19]): 0
Plant response rating, Pigweed (pigweed; [20]): 20
Pigweed plant response rating (pigweed; 125 g ai/ha): 10
Pigweed plant response rating (pigweed; 500 g ai/ha): 40
Rice plant response rating (0 to 100 scale) (rice [10]; 125 g ai/ha, 0 = no effect, 100 = complete control): 0
Plant response rating, Rice (rice [10]; 500 g ai/ha, visual rating 0-100, 0 no effect, 100 complete control): 0
Velvetleaf plant response rating (0 to 100 scale) (velvetleaf [11]; [19]): 0
Plant response rating, Velvetleaf (velvetleaf [11]; [20]): 10
Velvetleaf plant response rating (velvetleaf [11]; 125 g ai/ha): 0
Velvetleaf plant response rating (velvetleaf [11]; 500 g ai/ha): 0
Blackgrass plant response rating (blackgrass; 125 g ai/ha): 0
Blackgrass plant response rating (blackgrass; 500 g ai/ha): 0
Wheat plant response rating (wheat; 125 g ai/ha): 0
Wheat plant response rating (wheat; 500 g ai/ha): 0
Oat, Wild plant response rating (wild oat; 125 g ai/ha): 10
Oat, Wild plant response rating (wild oat; 500 g ai/ha): 10
Rice plant response rating (rice [12]): 0
Sedge, Umbrella plant response rating [13]: 0
Ducksalad plant response rating (ducksalad): 0
Barnyardgrass plant response rating (barnyardgrass [14]): 0
